Results: the RepoRT retention time repository (doi:10.1021/acs.jafc.0c00879)

experiment: RP, Waters ACQUITY UPLC HSS T3, 150 × 2.1 mm, 1.8 µm, 40 °C, 0.28 mL/min, estimated dead time 1.2 min; A: water + 0.1% formic acid; B: methanol + 0.1% formic acid; gradient (min/%B) 0/0 1/0 3/10 18/40 21/100 25.5/100; details: stereoisomer not certain

| SMILES | LC retention time |
| --- | --- |
| O=C1c2c(O)cc(O)cc2OC(c2ccc(O)cc2)C1O (stereo not drawn) | 18.6 min |
| COc1cc(-c2[o+]c3cc(O)cc(O)c3cc2OC2OC(COC(=O)C=Cc3ccc(O)cc3)C(O)C(O)C2O)cc(O)c1O (stereo not drawn) | 20.2 min |
| CC(C)(CO)C(O)C(=O)NCCC(=O)O (stereo not drawn) | 7.04 min |
| O=C(OC1Cc2c(O)cc(O)cc2OC1c1ccc(O)c(O)c1)c1cc(O)c(O)c(O)c1 (stereo not drawn) | 14.4 min |
| Oc1cc(O)c2c(c1)OC1(c3ccc(O)c(O)c3)Oc3cc(O)c4c(c3C2C1O)OC(c1ccc(O)c(O)c1)C(O)C4 (stereo not drawn) | 8.34 min |
| CCOC(=O)C=Cc1ccc(O)c(O)c1 | 20.7 min |
| O=C(C=Cc1ccc(O)c(O)c1)OC(C(=O)O)C(O)C(=O)O (stereo not drawn) | 7.71 min |
| COc1cc(-c2[o+]c3cc(O)cc(O)c3cc2OC2OC(COC(=O)C=Cc3ccc(O)cc3)C(O)C(O)C2O)ccc1O (stereo not drawn) | 20.4 min |
| COc1cc(-c2oc3cc(O)cc(O)c3c(=O)c2O)ccc1O | 21.2 min |
| NC(Cc1c[nH]c2ccccc12)C(=O)O (stereo not drawn) | 8.26 min |
| COc1cc(-c2[o+]c3cc(O)cc(O)c3cc2OC2OC(COC(C)=O)C(O)C(O)C2O)cc(OC)c1O (stereo not drawn) | 19.6 min |
| COc1cc(-c2[o+]c3cc(O)cc(O)c3cc2OC2OC(COC(C)=O)C(O)C(O)C2O)ccc1O (stereo not drawn) | 19.5 min |
| O=C(O)C1OC(Oc2c(-c3cc(O)c(O)c(O)c3)oc3cc(O)cc(O)c3c2=O)C(O)C(O)C1O (stereo not drawn) | 16.6 min |
| NC(CCC(=O)NC(CS)C(=O)NCC(=O)O)C(=O)O (stereo not drawn) | 2.46 min |
| O=c1c(OC2OC(CO)C(O)C(O)C2O)c(-c2ccc(O)cc2)oc2cc(O)cc(O)c12 (stereo not drawn) | 20.2 min |
| COc1cc(C=CC(=O)OC(C(=O)O)C(O)C(=O)O)ccc1O (stereo not drawn) | 10.9 min |
| O=c1oc2c(O)c(O)cc3c(=O)oc4c(O)c(O)cc1c4c23 | 19.8 min |
| COc1cc(-c2oc3cc(=O)cc4oc(O)c(C=[OH+])c(c2OC2OC(CO)C(O)C(O)C2O)c43)cc(OC)c1O (stereo not drawn) | 18.6 min |
| CC(=O)OCC1OC(Oc2cc3c(O)cc(O)cc3[o+]c2-c2ccc(O)c(O)c2)C(O)C(O)C1O (stereo not drawn) | 18.1 min |
| COc1cc(-c2oc3cc(O)cc(O)c3c(=O)c2OC2OC(CO)C(O)C(O)C2O)cc(O)c1O (stereo not drawn) | 19.6 min |
| O=C(O)C(O)Cc1c[nH]c2ccccc12 (stereo not drawn) | 15.3 min |
| COc1cc(-c2oc3cc(O)cc(O)c3c(=O)c2OC2OC(CO)C(O)C(O)C2O)cc(OC)c1O (stereo not drawn) | 20.4 min |
| COc1cc(-c2[o+]c3cc(O)cc(O)c3cc2OC2OC(COC(=O)C=Cc3ccc(O)cc3)C(O)C(O)C2O)cc(OC)c1O (stereo not drawn) | 20.3 min |
| COc1cc(-c2oc3cc(=[OH+])cc4occc(c2OC2OC(CO)C(O)C(O)C2O)c43)cc(OC)c1O (stereo not drawn) | 17.7 min |
| O=C(O)C1CCCN1 (stereo not drawn) | 1.49 min |
| O=c1[nH]c(=O)c2[nH]cnc2[nH]1 | 3.94 min |
| COc1cc(-c2[o+]c3cc(O)cc(O)c3cc2OC2OC(CO)C(O)C(O)C2O)cc(OC)c1O (stereo not drawn) | 14.8 min |

| SMILES | LC retention time |
| --- | --- |
| COc1cc(-c2oc3cc(O)cc(O)c3c(=O)c2O)cc(OC)c1O | 21.3 min |
| O=C(O)C1OC(Oc2c(-c3ccc(O)cc3)oc3cc(O)cc(O)c3c2=O)C(O)C(O)C1O (stereo not drawn) | 20.2 min |
| O=c1c(OC2OC(CO)C(O)C(O)C2O)c(-c2cc(O)c(O)c(O)c2)oc2cc(O)cc(O)c12 (stereo not drawn) | 17 min |
| COc1cc(-c2[o+]c3cc(O)cc(O)c3cc2OC2OC(COC(C)=O)C(O)C(O)C2O)cc(O)c1O (stereo not drawn) | 18.4 min |
| COc1cc(-c2oc3cc(O)cc(O)c3c(=O)c2O)cc(O)c1O | 20.9 min |
| CC(=O)OCC1OC(Oc2cc3c(O)cc(O)cc3[o+]c2-c2cc(O)c(O)c(O)c2)C(O)C(O)C1O (stereo not drawn) | 16.9 min |
| O=C1c2c(O)cc(O)cc2OC(c2ccc(O)c(OC3OC(C(=O)O)C(O)C(O)C3O)c2)C1O (stereo not drawn) | 19 min |
| Oc1ccc(C=Cc2cc(O)cc(O)c2)cc1 | 20.4 min |
| O=c1c(O)c(-c2ccc(O)cc2)oc2cc(O)cc(O)c12 | 21.2 min |
| CC(C)C(N)C(=O)O (stereo not drawn) | 2.07 min |
| CC(C=CC1(O)C(C)=CC(=O)CC1(C)C)=CC(=O)O (stereo not drawn) | 20.6 min |
| CCOC(=O)c1cc(O)c(O)c(O)c1 | 14.2 min |
| O=c1cc2oc(-c3ccc(O)c(O)c3)c(OC3OC(COC(=[OH+])C=Cc4ccc(O)cc4)C(O)C(O)C3O)cc-2c(O)c1 (stereo not drawn) | 20.2 min |
| O=C(O)c1cc(O)c(O)c(O)c1 | 6.83 min |
| NC(Cc1ccccc1)C(=O)O (stereo not drawn) | 5.95 min |
| O=S(=O)(O)c1[nH]c2ccccc2c1CCO | 10.5 min |
| COc1cc(-c2[o+]c3cc(O)cc(O)c3cc2OC2OC(CO)C(O)C(O)C2O)cc(O)c1O (stereo not drawn) | 13.3 min |
| Cc1cc2nc3c(=O)[nH]c(=O)nc-3n(CC(O)C(O)C(O)CO)c2cc1C (stereo not drawn) | 14.6 min |
| O=C(C=Cc1ccc(O)cc1)OCC1OC(Oc2cc3c(O)cc(O)cc3[o+]c2-c2cc(O)c(O)c(O)c2)C(O)C(O)C1O (stereo not drawn) | 20 min |
| CC(C)CC(N)C(=O)O (stereo not drawn) | 4.21 min |
| COc1cc(-c2oc3cc(O)cc(O)c3c(=O)c2OC2OC(CO)C(O)C(O)C2O)ccc1O (stereo not drawn) | 20.3 min |
| O=C(OC1Cc2c(O)cc(O)cc2OC1c1cc(O)c(O)c(O)c1)c1cc(O)c(O)c(O)c1 (stereo not drawn) | 15.2 min |
| COc1cc(-c2[o+]c3cc(O)cc(O)c3cc2OC2OC(CO)C(O)C(O)C2O)ccc1O (stereo not drawn) | 14.6 min |
| O=c1c(O)c(-c2ccc(O)c(O)c2)oc2cc(O)cc(O)c12 | 20.8 min |
| OCC1OC(Oc2cc3c(O)cc(O)cc3[o+]c2-c2cc(O)c(O)c(O)c2)C(O)C(O)C1O (stereo not drawn) | 11.3 min |
| NC(Cc1ccc(O)cc1)C(=O)O (stereo not drawn) | 4.05 min |
